Paper PMC9516332 (Frontiers in Oncology, 2022)
Read-outs that look alike come from different tables or passages of the source.

What was measured:
[1] = system: 134 cancer cell lines; test: Cell viability assay (ATPlite, 72 hours), IC50 on cancer cell line panel
[2] = system: AP-1060 (ETV6-NTRK3); test: Cell viability assay; details: read-out: IC50 in cell proliferation assay
[3] = target: T1, panel of 255 wild-type kinases (Homo sapiens, UniProt Q9BZL6); test: Kinase panel profiling at 1 µmol/L (MSA or IMAP), percentage inhibition; assay type: biochemical; details: kinase PKD2; 1 µmol/L single concentration; read-out: %-inhibition at 1 µmol/L, PKD2
T1 sequence (Q9BZL6 1-878): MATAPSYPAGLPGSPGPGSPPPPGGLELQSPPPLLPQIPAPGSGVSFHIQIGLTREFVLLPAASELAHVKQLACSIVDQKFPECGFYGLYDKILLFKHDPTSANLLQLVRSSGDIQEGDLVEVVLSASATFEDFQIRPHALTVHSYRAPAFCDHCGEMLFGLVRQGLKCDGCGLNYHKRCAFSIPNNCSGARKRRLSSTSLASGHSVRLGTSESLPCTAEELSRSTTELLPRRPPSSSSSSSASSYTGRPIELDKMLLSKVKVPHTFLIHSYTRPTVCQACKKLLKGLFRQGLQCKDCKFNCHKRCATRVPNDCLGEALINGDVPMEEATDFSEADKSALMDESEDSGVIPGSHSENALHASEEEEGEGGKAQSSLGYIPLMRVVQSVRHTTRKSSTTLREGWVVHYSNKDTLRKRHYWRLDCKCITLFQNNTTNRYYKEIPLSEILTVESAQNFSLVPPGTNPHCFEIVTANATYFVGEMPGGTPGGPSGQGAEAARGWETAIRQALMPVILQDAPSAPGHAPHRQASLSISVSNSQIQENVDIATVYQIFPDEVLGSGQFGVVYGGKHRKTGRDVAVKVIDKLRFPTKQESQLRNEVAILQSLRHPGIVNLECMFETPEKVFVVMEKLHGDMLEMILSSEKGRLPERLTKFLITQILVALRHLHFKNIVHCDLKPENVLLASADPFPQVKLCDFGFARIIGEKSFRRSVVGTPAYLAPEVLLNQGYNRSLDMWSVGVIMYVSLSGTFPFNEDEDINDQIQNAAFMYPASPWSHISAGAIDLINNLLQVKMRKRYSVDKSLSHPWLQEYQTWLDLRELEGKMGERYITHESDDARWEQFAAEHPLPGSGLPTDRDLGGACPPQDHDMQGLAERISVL

CN1CCN(c2ccc(C(=O)Nc3n[nH]c4ccc(Cc5cc(F)cc(F)c5)cc34)c(NC3CCOCC3)c2)CC1 [entrectinib]
IC50 ([1]; Homo sapiens, MeWo, read-out: IC50 in cell proliferation assay, MeWo cell line): 10.1 µM | IC50 ([1]; Homo sapiens, NCCIT, read-out: IC50 in cell proliferation assay, NCC-IT cell line): 6.38 µM | IC50 ([1]; Homo sapiens, NCI-H82, read-out: IC50 in cell proliferation assay, cell line NCI-H82): 9.7 µM | IC50 ([1]; Homo sapiens, NCI-H460, read-out: IC50 in cell proliferation assay, NCI-H460 cell line): 9.99 µM | IC50 ([1]; Homo sapiens, NCI-H661, read-out: IC50 in cell proliferation assay, NCI-H661 cell line): 4.03 µM | IC50 ([1]; Homo sapiens, NCI-H716, read-out: IC50 in cell proliferation assay, cell line NCI-H716 (FGFR2-COL14A1)): 1.46 µM | IC50 ([1]; Homo sapiens, NCI-H1650, read-out: IC50 in cell proliferation assay, NCI-H1650 cell line (EGFR exon19del)): 2.44 µM | IC50 ([1]; Homo sapiens, NCI-H1975, read-out: IC50 in cell proliferation assay, NCI-H1975 cell line (EGFR p.L858R + p.T790M)): 4.15 µM | IC50 ([1]; Homo sapiens, NCI-H2228, read-out: IC50 in cell proliferation assay, NCI-H2228 cell line (EML4-ALK)): 0.196 µM | IC50 ([1]; Homo sapiens, OVCAR-3, read-out: IC50 in cell proliferation assay, cell line OVCAR-3): 8.35 µM | IC50 ([1]; Homo sapiens, PFSK-1, read-out: IC50 in cell proliferation assay, cell line PFSK-1): 7.82 µM | IC50 ([1]; Homo sapiens, RL95-2, read-out: IC50 in cell proliferation assay, cell line RL95-2 (EGFR p.A289V)): 3.32 µM | IC50 ([1]; Homo sapiens, RPMI-7951, read-out: IC50 in cell proliferation assay, cell line RPMI-7951 (BRAF p.V600E)): 4.02 µM | IC50 ([1]; Homo sapiens, RS4-11, read-out: IC50 in cell proliferation assay, cell line RS4;11): 8.24 µM | IC50 ([1]; Homo sapiens, Rec1, read-out: IC50 in cell proliferation assay, cell line REC-1): 5.02 µM | IC50 ([1]; Homo sapiens, SHP77, read-out: IC50 in cell proliferation assay, cell line SHP-77): 12.7 µM | IC50 ([1]; Homo sapiens, SK-BR-3, read-out: IC50 in cell proliferation assay, cell line SK-BR-3 (ERBB2 amplification)): 11.1 µM | IC50 ([1]; Homo sapiens, SK-N-AS, read-out: IC50 in cell proliferation assay, cell line SK-N-AS): 5.34 µM | IC50 ([1]; Homo sapiens, SK-N-FI, read-out: IC50 in cell proliferation assay, cell line SK-N-FI): 4.06 µM | IC50 ([1]; Homo sapiens, SK-N-MC, read-out: IC50 in cell proliferation assay, cell line SK-N-MC): 4.62 µM | IC50 ([1]; Homo sapiens, SK-N-SH, read-out: IC50 in cell proliferation assay, cell line SK-N-SH (ALK p.F1174L)): 2.8 µM | IC50 ([1]; Homo sapiens, SNU-5, read-out: IC50 in cell proliferation assay, cell line SNU-5 (MET amplification)): 9.58 µM | IC50 ([1]; Homo sapiens, SNU-16, read-out: IC50 in cell proliferation assay, cell line SNU-16 (FGFR2 amplification)): 2.13 µM | IC50 ([1]; Homo sapiens, SNU-C2B, read-out: IC50 in cell proliferation assay, cell line SNU-C2B (EGFR p.R165Q)): 8.12 µM | IC50 ([1]; Homo sapiens, SU-DHL-1, read-out: IC50 in cell proliferation assay, cell line SU-DHL-1 (NPM1-ALK)): 0.607 µM | IC50 ([1]; Homo sapiens, SU-DHL-6, read-out: IC50 in cell proliferation assay, cell line SU-DHL-6): 7.74 µM | IC50 ([1]; Homo sapiens, SUP-T1, read-out: IC50 in cell proliferation assay, cell line SUP-T1): 11 µM | IC50 ([1]; Homo sapiens, SW48, read-out: IC50 in cell proliferation assay, cell line SW48 (EGFR p.G719S)): 5.31 µM | IC50 ([1]; Homo sapiens, SW480, read-out: IC50 in cell proliferation assay, cell line SW480): 6.93 µM | IC50 ([1]; Homo sapiens, SW626, read-out: IC50 in cell proliferation assay, cell line SW626): 7.38 µM | IC50 ([1]; Homo sapiens, SW780, read-out: IC50 in cell proliferation assay, cell line SW780 (FGFR3-BAIAP2L1)): 2.85 µM | IC50 ([1]; Homo sapiens, SW837, read-out: IC50 in cell proliferation assay, cell line SW837): 8.38 µM | IC50 ([1]; Homo sapiens, SW872, read-out: IC50 in cell proliferation assay, cell line SW872 (BRAF p.V600E)): 6.09 µM | IC50 ([1]; Homo sapiens, SW900, read-out: IC50 in cell proliferation assay, cell line SW900): 6.64 µM | IC50 ([1]; Homo sapiens, SW948, read-out: IC50 in cell proliferation assay, cell line SW948): 9.44 µM | IC50 ([1]; Homo sapiens, SW982, read-out: IC50 in cell proliferation assay, cell line SW982 (BRAF p.V600E)): 5.31 µM | IC50 ([1]; Homo sapiens, SW-620, read-out: IC50 in cell proliferation assay, cell line SW620): 6.33 µM | IC50 ([1]; Homo sapiens, T98G, read-out: IC50 in cell proliferation assay, cell line T98G): 5.59 µM | IC50 ([1]; Homo sapiens, TCC-SUP, read-out: IC50 in cell proliferation assay, cell line TCCSUP): 6.42 µM | IC50 ([1]; Homo sapiens, THP-1, read-out: IC50 in cell proliferation assay, cell line THP-1): 12.9 µM | IC50 ([1]; Homo sapiens, U2OS, read-out: IC50 in cell proliferation assay, cell line U2OS): 4.45 µM | IC50 ([1]; Homo sapiens, U-87 MG, read-out: IC50 in cell proliferation assay, cell line U-87MG ATCC): 7.08 µM | IC50 ([1]; Homo sapiens, U-118-MG, read-out: IC50 in cell proliferation assay, cell line U-118MG): 6.88 µM | IC50 ([1]; Homo sapiens, UMUC3, read-out: IC50 in cell proliferation assay, cell line UM-UC-3): 6.87 µM | IC50 ([1]; Hs766T, read-out: IC50 in cell proliferation assay, Hs 766T cell line): 7.08 µM | IC50 ([1]; L-82, read-out: IC50 in cell proliferation assay, L-82 cell line (NPM1-ALK)): 0.125 µM | IC50 ([1]; Rh30, read-out: IC50 in cell proliferation assay, cell line Rh30): 4.64 µM | IC50 ([1]; read-out: IC50 in cell proliferation assay, 11-18 cell line (EGFR p.L858R)): 4.17 µM | IC50 ([1]; read-out: IC50 in cell proliferation assay, Hs 852.T cell line): 4.09 µM | IC50 ([1]; read-out: IC50 in cell proliferation assay, JAR cell line): 5.04 µM | IC50 ([1]; read-out: IC50 in cell proliferation assay, cell line 5637): 5.56 µM | IC50 ([1]; read-out: IC50 in cell proliferation assay, cell line A-388): 10.3 µM | IC50 ([1]; read-out: IC50 in cell proliferation assay, cell line DB): 10.5 µM | IC50 ([1]; read-out: IC50 in cell proliferation assay, cell line DEL (NPM1-ALK)): 0.216 µM | IC50 ([1]; read-out: IC50 in cell proliferation assay, cell line ES-2 (BRAF p.V600E)): 4.86 µM | IC50 ([1]; read-out: IC50 in cell proliferation assay, cell line PA-1): 3.03 µM | IC50 ([1]; read-out: IC50 in cell proliferation assay, cell line PC-3): 11 µM | IC50 ([1]; read-out: IC50 in cell proliferation assay, cell line RD): 5.09 µM | IC50 ([1]; read-out: IC50 in cell proliferation assay, cell line RKO (BRAF p.V600E)): 4.68 µM | IC50 ([1]; read-out: IC50 in cell proliferation assay, cell line RL): 10.9 µM | IC50 ([1]; read-out: IC50 in cell proliferation assay, cell line RT-4 (FGFR3-TACC3)): 2.94 µM | IC50 ([1]; read-out: IC50 in cell proliferation assay, cell line SR (NPM1-ALK)): 0.72 µM | IC50 ([1]; read-out: IC50 in cell proliferation assay, cell line T24): 7.12 µM | IC50 ([1]; read-out: IC50 in cell proliferation assay, cell line TT (RET p.C634W)): 9.26 µM | IC50 ([1]; read-out: IC50 in cell proliferation assay, cell line VA-ES-BJ): 6.41 µM | IC50 [2]: 0.035 µM | inhibition at 1 µM [3]: -24%
